Measured values: US20140335050A1, “METHODS, COMPOSITIONS, AND KITS FOR THE TREATMENT OF CANCER” (The General Hospital Corporation, priority 2011, published 2014)

Legend:
MU89 melanoma cell line = assay: Antibody staining and flow cytometry (intracellular Melan-A/MART-1, gp100, TRP-2; surface MHC Class I/II); type: cell-based, human; settings: MU89
[1] = tested on: MALME-3M melanoma cell line; assay: Antibody staining and flow cytometry (intracellular Melan-A/MART-1, gp100, TRP-2; surface MHC Class I); type: cell-based, human
Experimental: (§1) Cells were fixed with 1% formaldehyde, permeabilized with 0.1% saponin, stained with monoclonal antibodies to melanocyte antigens. Antibodies were obtained with specificity for: MART-1 from Vector Labs (Burlingame, Calif.); gp100 HMB45 from DakoCytomation (Carpinteria, Calif.) and then visualized with goat anti-mouse FITC-conjugated secondary antibody from Invitrogen (Fredrick, Md.). The level of EGFP was determined by flow cytometry of unfixed cells that were washed and resuspended in 1×PBS.
(§2) Cells were plated at a density of 1×10^5 in 1 ml of medium in a 24-well plate and cultured for varying times as indicated in results. […] After incubation, cells were collected by trypsinization and then evaluated by flow cytometry.
(§3) Intracellular staining and flow cytometric analyses of cytoplasmic Melan-A/MART-1, and gp100 expression were performed as described previously. Cells were fixed with 1% formaldehyde, permeabilized with 0.1% saponin, stained with monoclonal antibodies to melanocyte antigens. Antibodies were obtained with specificity for: Melan-A/MART-1 from Vector Labs (Burlingame, Calif.); gp100/HMB45 from DakoCytomation (Carpinteria, Calif.) and then visualized with goat anti-mouse FITC-conjugated secondary antibody from Invitrogen (Frederick, Md.). The level of EGFP was determined by flow cytometry of unfixed cells washed and resuspended in 1×PBS. Surface staining of MHC Class I was carried out using the antibody W6/32 on cells harvested with Cell Stripper from MediaTech Inc. (Manassas, Va.) and carried out on ice.

[2] = tested on: U-118 MG glioma cell line; assay: Antibody staining and flow cytometry (intracellular gp100; surface MHC Class I/II); type: cell-based, human; settings: U-118 MG; 3 days; IFN-beta 5000 Units/ml, 17-AEP 1.0, PU-H71 0.3, CCT018159 10.0 μg/ml
U-87 MG glioma cell line = assay: Antibody staining and flow cytometry (intracellular gp100; surface MHC Class I); type: cell-based, human; settings: U-87 MG; 3 days; IFN-beta 5000 Units/ml, 17-AEP 0.5, PU-H71 0.3, CCT018159 5.0 μg/ml
Experimental: as §1, §2, §3

[3] = tested on: B16 murine melanoma cell line; assay: Antibody staining and flow cytometry (intracellular gp100, TRP-2; surface Class I with H2kb antibody); type: cell-based, mouse; settings: 3 days, 17-AEP 0.5, PU-H71 0.15, CCT018159 2.5 μg/ml
Excerpt: To further evaluate enhancement of immune recognition of cancer cells by inhibition of Hsp90 function, it was shown that a total of twelve different Hsp90 inhibitors were active in several molecular and cellular assays on a series of cell lines, including eleven human melanomas, the murine B16 melanoma, and two human gliomas. […] The melanomas all express varying levels of differentiation antigens Melan-A/MART-1, gp100 and TRP-2, as well as the MHC-Class I antigen (as evidenced by W6/32 antibody staining) that is required for T cell recognition of the tumor cells. Each of these antigens is enhanced by all of the Hsp90 inhibitors. […] Similar to the human counterparts, the B16 mouse tumor also can be induced to express enhanced antigen levels upon 3-day exposure to each of the Hsp90 inhibitors (Table 16). The mouse H-2 Class I antigen is likewise induced by the Hsp90 inhibitors.
General culture conditions for cell propagation and the origins of most of the melanoma cell lines have been previously described. Melanoma cells were cultured in DMEM with 10% FBS. The glioma cell lines U87 MG and U118 MG were obtained from the American Type Culture Collection (ATCC). The B16 murine melanoma cell line was provided by Dr. Andrew Hurwitz and has been previously described. The T cell receptor (TCR)-negative Jurkat T cell line derivative J.RT3-T3.5 was obtained from ATCC. The construction of the J.RT3-T3.5 cell line expressing a Melan-A/MART-1 specific TCR has been described previously. T cells were cultured in RPMI with 10% FBS. IFN-beta-1a (Avonex) was obtained from Biogen-Idec (Cambridge, Mass.) and reconstituted according to the manufacturer's recommendations. The Hsp90 inhibitor radicicol was purchased from A.G. Scientific (San Diego, Calif.). Novobiocin was ordered from BioMol (Plymouth Meeting, Pa.). 17-DMAG was obtained from LC laboratories (Woburn, Mass.). 17-AEP-AP was purchased from InVivoGen (San Diego, Calif.). […] Gedunin, CCT018159, and celastrol were purchased from Tocris (Ellisville, Mo.). Selleck Chemicals (Houston, Tex.) provided NVP-AUY922 and BIIB021.
Cells were plated at a density of 1×10^5 in 1 ml of medium in a 24-well plate and cultured for varying times as indicated in results. Typically, 3 days of culture in the presence of Hsp90 inhibitors was optimal for the functional studies performed. After incubation, cells were collected by trypsinization and then evaluated by flow cytometry.
as §3

[4] = 3 days, IFN-beta 5000 Units/ml, 17-AEP 1.0, PU-H71 0.3, CCT018159 10.0 μg/ml
[5] = MALME-3M, 3 days, IFN-beta 5000 Units/ml, 17-AEP 1.0, PU-H71 0.3, CCT018159 10.0 μg/ml

CO[C@H]1/C=C\C=C(/C)C(=O)NC2=CC(=O)C(NCCN3CCCC3)=C(C[C@@H](C)C[C@H](OC)[C@H](O)[C@@H](C)/C=C(\C)[C@@H]1OC(N)=O)C2=O [17-AEP]
Class I, geometric mean of surface staining (W6/32) (MU89 melanoma cell line; [4]): 54 | MART-1, geometric mean of intracellular staining (MU89 melanoma cell line; [4]): 130 | TRP-2, geometric mean of intracellular staining (MU89 melanoma cell line; [4]): 144 | gp100, geometric mean of intracellular staining (MU89 melanoma cell line; [4]): 342 | MHC Class I, geometric mean of surface staining (W6/32) (MU89 melanoma cell line; 4 day IFN-β pre-treatment (5000 Units/ml), then 3 days with fresh IFN-β and the labelled HSP90 inhibitor (label IFN-β: no inhibitor), 17-AEP 1, PU-H71 0.3, CCT018159 10 mg/ml): 227 | MHC Class I, geometric mean of surface staining (W6/32) (MU89 melanoma cell line; 4 day IFN-β pre-treatment (5000 Units/ml), then 3 days without IFN-β with the labelled HSP90 inhibitor (label IFN-β: no inhibitor), 17-AEP 1, PU-H71 0.3, CCT018159 10 mg/ml): 86 | MHC Class I, geometric mean of surface staining (W6/32) (MU89 melanoma cell line; single agent for 3 days, no IFN-β pre-treatment, IFN-β 5000 Units/ml): 84 | MHC Class I, geometric mean of surface staining (W6/32) (MU89 melanoma cell line; three days, IFN-β 5000 Units/ml): 54 | Class I, geometric mean of surface staining (W6/32) [1, 5]: 105 | MART-1, geometric mean of intracellular staining [1, 5]: 205 | TRP-2, geometric mean of intracellular staining [1, 5]: 256 | gp100, geometric mean of intracellular staining [1, 5]: 839 | MHC Class I, geometric mean of surface staining (W6/32) ([1]; MALME, three days, IFN-β 5000 Units/ml): 105 | Class I, geometric mean of surface staining (W6/32) [2]: 117 | gp100, geometric mean of intracellular staining [2]: 61 | Class I, geometric mean of surface staining (W6/32) (U-87 MG glioma cell line): 66 | gp100, geometric mean of intracellular staining (U-87 MG glioma cell line): 51 | Class I, geometric mean of surface staining (H2kb) [3]: 13 | TRP-2, geometric mean of intracellular staining [3]: 288 | gp100, geometric mean of intracellular staining [3]: 420
